Results on 10 compounds are retold here after patent publication US20180305332A1, “Bispiperidinyl Derivatives as Liver X Receptor Beta Agonists, Compositions, and Their Use” (Merck Sharp & Dohme Corp., priority 2015, published 2018).

The target of assay [1] is T1, GST tagged LXRbeta LBD (ligand binding domain) (Homo sapiens, UniProt P55055).
T1 construct: purchased Invitrogen pv4658.pps
T1 sequence (P55055 222-460 limits assumed): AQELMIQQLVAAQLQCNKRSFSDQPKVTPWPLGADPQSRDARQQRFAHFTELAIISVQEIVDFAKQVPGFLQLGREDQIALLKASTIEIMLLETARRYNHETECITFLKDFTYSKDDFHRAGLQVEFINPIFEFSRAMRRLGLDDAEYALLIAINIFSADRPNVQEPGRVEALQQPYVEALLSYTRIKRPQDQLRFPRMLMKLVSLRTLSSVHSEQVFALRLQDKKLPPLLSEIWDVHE
Description: LanthaScreen TR-FRET Liver X Receptor Coactivator Assay, LXR beta-LBD. It is filed as biochemical. The settings on record: relative to reference T0901317; for EC50: Inflection Point (potency), co-activator recruitment, read-out: LXR beta IP; for Emax: activity at max dose (efficacy), read-out: LXR beta act @ max dose (%). Put shortly:
(§1)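 Coactivator-recruitment TR-FRET format: GST-LBD, fluorescein-labelled coactivator peptide, Tb-conjugated anti-GST antibody, incubated at RT. Potency and efficacy scaled to T0901317.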
In general terms: In TR-FRET formats the signal depends on donor and acceptor labels being close together.

Assay [2] concerns the target T2, GST tagged LXRalpha LBD (ligand binding domain) (Homo sapiens, UniProt Q13133).
T2 construct: purchased Invitrogen pv4655
T2 sequence (Q13133 209-447 limits assumed): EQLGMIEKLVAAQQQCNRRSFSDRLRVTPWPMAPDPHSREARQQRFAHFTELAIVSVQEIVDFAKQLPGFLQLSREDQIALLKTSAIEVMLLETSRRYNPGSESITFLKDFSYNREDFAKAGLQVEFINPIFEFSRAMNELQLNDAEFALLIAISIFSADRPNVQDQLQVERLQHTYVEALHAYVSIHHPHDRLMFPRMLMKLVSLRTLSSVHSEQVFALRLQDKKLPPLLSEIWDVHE
Description: LanthaScreen TR-FRET Liver X Receptor Coactivator Assay, LXR alpha-LBD. It is filed as biochemical. The settings on record: relative to reference T0901317; for EC50: read-out: LXR alpha IP; for Emax: activity at max dose (efficacy), read-out: LXR alpha act @ max dose (%). Put shortly: as §1

Setting [3] is: Inflection Point (potency), co-activator recruitment.

In the case of `COCCCN(C)C(=O)c1ccc(N2CCC(C3CCN(C(=O)[C@](O)(c4ccccc4)C(F)(F)F)CC3)CC2)cc1Cl` [Example E-48, 2-chloro-N-(3-methoxyproply)-N-methyl-4-{1′-[(2R)-3,3,3-trifluoro-2-hydroxy-2-phenylpropanoyl]-4,4′-bipiperidin-1-yl}benzamide], the EC50 is 175 nM in assay [1] and 1720 nM in assay [2] (setting [3]). Further, the results for the Emax in assay [1] and in assay [2] were 106% and 26%, respectively.

As to `O=C(c1c(F)cccc1F)N1CCC(C2CCN(c3ccc(C(=O)N4CCCC4CO)c(Cl)c3)CC2)CC1` (stereo not shown) [Example E-12, {1-[(2-chloro-4-{1′-[(2,6-difluorophenyl)carbonyl]-4,4′-bipiperidin-1-yl}phenyl)carbonyl]pyrrolidin-2-yl}methanol], the values for the EC50 in assay [1] and in assay [2] (setting [3]) were 128 nM and 1220 nM, respectively. Further, the Emax was determined as 84% in assay [1] and 58% in assay [2].

For `CC[C@](O)(C(=O)N1CCC(C2CCN(c3ccc(C(=O)N(C)C)c(Cl)c3)CC2)CC1)C(F)(F)F` (single isomer, unassigned) [Example A-42], the EC50 in assay [1] was determined as 61 nM; in assay [2] (setting [3]) it was 3000 nM. The values for the Emax in assay [1] and in assay [2] were 117% and 67%, respectively.

As for `COc1ccc(C2(C(=O)N3CCC(C4CCN(c5ccc(C(=O)N(C)C)c(Cl)c5)CC4)CC3)CC2)cc1` [Example A-48, 2-chloro-4-(1′-{[1-(4-methoxyphenyl)cyclopropyl]carbonyl}-4,4′-bipiperidin-1-yl)-N,N-dimethylbenzamide], in assay [1], the EC50 amounted to 289 nM and the Emax was 69%. In assay [2] (setting [3]), the “LXR alpha IP (nM)” value was “NO IP”. In addition, the Emax in assay [2] was 0%.

As to `CN(C)C(=O)c1ccc(N2CCC(C3CCN(C(=O)c4ccccc4Cl)CC3)CC2)cc1Cl` [Example A-22, 2-chloro-4-{1′-[(2-chlorophenyl)carbonyl]-4,4′-bipiperidin-1-yl}-N,N-dimethylbenzamide], the results for the EC50 in assay [1] and in assay [2] (setting [3]) were 52 nM and 1 nM, respectively. Also, the results for the Emax in assay [1] and in assay [2] were 58% and 3%, respectively.

For the compound `CN(C)C(=O)c1ccc(N2CCC(C3CCN(C(=O)C(O)(c4ccccc4)C4CCC4)CC3)CC2)cc1Cl` (stereo not shown) [Example A-51, 2-chloro-4-{1′-[cyclobutyl(hydroxy)phenylacetyl]-4,4′-bipiperidin-1-yl}-N,N-dimethylbenzamide], the EC50 was determined as 128 nM in assay [1] and 1590 nM in assay [2] (setting [3]). In addition, the Emax in assay [1] amounted to 109%; in assay [2] it was 33%.

For `CN(C)C(=O)c1ccc(N2CCC(C3CCN(C(=O)C(C)(C)c4ccccc4)CC3)CC2)nc1Cl` [Example B-12, 2-chloro-N,N-dimethyl-6-[1′-(2-methyl-2-phenylpropanoyl)-4,4′-bipiperidin-1-yl]pyridine-3-carboxamide], the EC50 in assay [1] amounted to 65 nM; in assay [2] (setting [3]) it was 684 nM. Further, the Emax stood at 140% in assay [1] and 69% in assay [2].

With `CC(C)C(O)(C(=O)N1CCC(C2CCN(c3ccc(C(=O)N4CCOCC4)c(Cl)c3)CC2)CC1)C(F)(F)F` (stereo not shown) [Example E-8, 2-({1′-[3-chloro-4-(morpholin-4-ylcarbonyl)phenyl]-4,4′-bipiperidin-1-yl}carbonyl)-1,1,1-trifluoro-3-methylbutan-2-ol], the EC50 in assay [1] came out at 149 nM; in assay [2] (setting [3]), 1190 nM. For the same compound, the values for the Emax in assay [1] and in assay [2] were 65% and 29%, respectively.

Turning to `CN(C)C(=O)c1ccc(N2CCC(C3CCN(C(=O)C4(c5ccccc5)CCC4)CC3)CC2)nc1Cl` [Example B-14, 2-chloro-N,N-dimethyl-6-{1′-[(1-phenylcyclobutyl)carbonyl]-4,4′-bipiperidin-1-yl}pyridine-3-carboxamide], the EC50 in assay [1] came to 73 nM; in assay [2] (setting [3]), 1230 nM. The Emax in assay [1] stood at 114%; in assay [2], 43%.

With `CC(C)[C@](O)(C(=O)N1CCC(C2CCN(c3ccc(C(=O)N(C)C)c(Cl)c3)CC2)CC1)C(F)(F)F` (single isomer, unassigned) [Example A-3], the EC50 in assay [1] came out at 63 nM; in assay [2] (setting [3]), 3550 nM. Further, the values for the Emax in assay [1] and in assay [2] were 103% and 36%, respectively.
